Experimental findings from patent US11547702B2, “Use of amlexanox” (SHANGHAI MICROPORT MEDICAL (GROUP) CO., LTD., priority 2016, dated 2023) are described below.

The subject of assay [1] is Human Aortic Smooth Muscle Cells (HASMCs). The assay can be described thus: In vitro cell proliferation test (MTT colorimetry), smooth muscle cells. To be noted: 72 hours, based on the control group, average of 6 tests.
The subject of assay [2] is Human Aortic Endothelial Cells (HAECs). The assay can be described thus: In vitro cell proliferation test (MTT colorimetry), endothelial cells. As to conditions: 72 hours, based on the control group, average of 6 tests.
Setting [3] is: 1 μmol of each drug in culture medium.
[4] abbreviates: 6 μmol of each drug in culture medium.
The mark [5] stands for this setting: 10 μmol of each drug in culture medium.

Regarding `CC(C)c1ccc2oc3nc(N)c(C(=O)O)cc3c(=O)c2c1` [Amlexanox, 2-amimo-7-isopropyl-5-oxo-5H-[1]benzopyrano-[2,3,-b]pyridine-3-carboxylic acid], the entries for the “Smooth muscle cell inhibition rate (%)” value in assay [1] (setting [3]), in assay [1] (setting [4]) and in assay [1] (setting [5]) were 11.6%, 19.0% and 23.4%, respectively. The results for the “Endothelial cell inhibition rate (%)” value in assay [2] (setting [3]), in assay [2] (setting [4]) and in assay [2] (setting [5]) were 0.9%, 2.8% and 3.5%, respectively.
In the case of `CO[C@H]1C[C@@H]2CC[C@@H](C)[C@@](O)(O2)C(=O)C(=O)N2CCCC[C@H]2C(=O)O[C@H]([C@H](C)C[C@@H]2CC[C@@H](O)[C@H](OC)C2)CC(=O)[C@H](C)/C=C(\C)[C@@H](O)[C@@H](OC)C(=O)[C@H](C)C[C@H](C)/C=C/C=C/C=C/1C` [Rapamycin, rapamycin], the entries for the “Smooth muscle cell inhibition rate (%)” value in assay [1] (setting [3]) and in assay [1] (setting [4]) were 9.1% and 18.9%, respectively. The entries for the “Endothelial cell inhibition rate (%)” value in assay [2] (setting [3]), in assay [2] (setting [4]) and in assay [2] (setting [5]) were 7.7%, 16.0% and 21.8%, respectively.
